Test [1] concerns the target α-Glucosidase from Saccharomyces cerevisiae. Description: α-Glycosidase inhibition assay with pNPG substrate. Format: biochemical. On the procedure: α-Glucosidase activity (α-Glucosidase from Saccharomyces cerevisiae) was assessed using p-nitrophenyl-D-glycopyranoside (pNPG) as the substrate, following the procedure outlined by Tao et al.[60],[61] Initially, 100 μL of phosphate buffer was mixed with 20 μL of the enzyme solution (0.15 U/mL, pH 6.8) and 10–100 μL (0.01–1 mg/mL^–1) of the sample. To ensure complete enzyme inhibition, multiple solutions were prepared in phosphate buffer. The mixture was preincubated at 35 °C for 12 min before the reaction was initiated by adding pNPG. Subsequently, 50 μL of pNPG solution (5.0 mM, pH 7.4) was added and incubated at 37 °C. Absorbance was measured spectrophotometrically at 405 nm.
Furthermore, the types of inhibition and inhibition constants (KI) were calculated from Lineweaver–Burk plots, providing detailed insights into the kinetic properties of these inhibitors.[62],[63]

Test [2] has as its system L929 fibroblast cell line. Description: MTT cell viability assay. Format: cell-based. The following applies: Mus musculus; L929, 24 h incubation, 5–100 μM. As for the experimental part: Healthy mouse fibroblast cell line (L929) was obtained from ATCC (American Type Culture Collection) and studied. Cells were mixed with 89% DMEM (Dulbecco’s modified Eagle’s medium; Gibco, Thermo Fisher Scientific), 10% FBS (Fetal Bovine Serum; Sigma-Aldrich) and 1% penicillin (Sigma-Aldrich) solutions. The cells in which the medium was added were allowed to grow by incubating at 37 °C in an environment containing 95% humidity and 5% CO2.[66],[67]
The cytotoxic effects of all syntheses by MTT analysis on L929 cell line was investigated. 96-well plates were used for seeding cells. Approximately 1 × 10^4 cells were seeded in each well. Cells were allowed to adhere for 24 h and then the syntheses were applied at different concentrations (5–100 μM). After adding syntheses at different concentrations, the wells were incubated for 24 h. All wells without syntheses were used as controls. After the incubation, the wells were treated with MTT solution to determine metabolically active cells and incubated at 37 °C for 3 h. After the MTT interaction, the wells were emptied and DMSO solution was placed in them. The formazan crystals formed were dissolved with this solution and the number of viable cells in each well was determined by color change. The absorbance values were read at 540 nm with the help of a microplate and the values found were represented as mean ± standard deviation (±SD).[66],[67]

On to `O=C(CSc1nnc(Nc2ccccc2)s1)N(Cc1ccc([N+](=O)[O-])cc1)c1ccc(Cl)cc1` [6g, N-(4-Chlororophenyl)-2-[(5-(phenylamino)-1,3,4-thiadiazol-2-yl)thio]-N-(4-nitrobenzyl) Acetamide], for which the Ki in test [1] (Lineweaver–Burk plots, read-out: α-GLY KI) stood at 12 ± 0.97 µM. The IC50 in test [1] (mean ± SEM, read-out: α-GLY IC50) stood at 12.2 ± 0.87 µM; in test [2], 99.5 ± 5.66 µM.

The values are drawn from publication PMC12079242, “Design, Synthesis, Biological Evaluation, and Molecular Docking Studies of Novel 1,3,4-Thiadiazole Derivatives Targeting Both Aldose Reductase and α-Glucosidase for Diabetes Mellitus” (ACS Omega, 2025).
